Data from patent US20140322242A1, “MATERIALS AND METHODS FOR THE PREVENTION AND TREATMENT OF CANCER” (Icahn School of Medicine at Mount Sinai, priority 2010, published 2014).

Assays:
[1] = test system: prostate cancer in cMyc mice; assay: cMyc transgenic mouse model of prostate cancer (mPIN, invasive cancer zones); format: in vivo
Description: To investigate further the activity of G-CSF on tumor development using a genetic mouse model, transgenic mice expressing human cMyc under the ARR2/probasin promoter expressed specifically in the prostate (hereafter cMyc mice) were evaluated. This transgenic model leads to the complete penetrance of mouse prostatic intraepithelial neoplasia (mPIN) from postnatal week 2, progressing to invasive adenocarcinomas between 3 to 6 months of age (FIG. 2m). […] The development of invasive cancer was associated with a broad infiltration of NF-L+ neo-fibers by comparison with control animals (FIG. 2o). Thus, the increased tumor/normal epithelial cell proliferation following G-CSF administration is associated with (i.e., is correlated to) the development of new nerve fibers in the primary tumor. Accordingly, a method of treating cancer in a subject such as a human patient or non-human animal (e.g., non-human mammal) comprises administering a prophylactically or therapeutically effective amount of an inhibitor of NF-L+ neo-fibers. In some embodiments, the method comprises administering a prophylactically or therapeutically effective amount of an inhibitor of G-CSF.
(§1) Human tumors were induced by orthotopic surgical implantations of 1×10^5 PC-3luc cells into six- to eight-week-old Balb/c nu/nu mice. Ten days after cell injection (day 0), the animals were randomized into the different groups and received the appropriate drugs, as indicated. 6OHDA or vehicle was injected at day 0 (100 mg/kg) and day 2 (250 mg/kg), and human recombinant G-CSF treatment was begun on day 4 (Amgen, 250 μg/kg/day, every 12 hours, 8 divided doses, i.p., in 5% dextrose). A second cycle was administered eight weeks after graft and animals were sacrificed three weeks after the last injection of G-CSF (i.e., 11 weeks after graft). In other experiments, 2×10^5 PC-3luc cells were orthotopically injected into nu/nu Adrβ2^tm1Bkk/J+/+ Adrβ3^tm1Lowl/J+/+, nu/nu Adrβ2^tm1Bkk/J−/−, nu/nu Adrβ3^tm1Lowl/J−/− and nu/nu Adrβ2^tm1Bkk/J−/− Adrβ3^tm1Lowl/J−/−. In selected experiments, 2×10^6 LNCaP-luc cells were injected in nu/nu Adrβ2^tm1Bkk/J+/+ Adrβ3^tm1Lowl/J+/+ and nu/nu Adrβ2^tm1Bkk/J−/− Adrβ3^tm1Lowl/J−/− mice. For the transgenic model, one-, two- or five-month-old c-Myc mice were injected with 6OHDA or surgically sympathectomized according to protocols described above and sacrificed 30 days later.
To ascertain the role of sympathetic innervation in tumor initiation using a genetic model, the effect of chemical or surgical sympathectomy on prostate cancer in cMyc mice was evaluated. For this study, transgenic cMyc mice expressing human c-Myc under the ARR2/probasin promoter expressed specifically in the prostate (AAR2/Pbsn-MYC) were used. This transgenic model leads to the complete penetrance of mouse prostatic intraepithelial neoplasia (mPIN) from postnatal week 2, progressing to invasive adenocarcinomas between 3 to 6 months of age (FIG. 6e). To this end, mice were chemically sympathectomized one month prior to histological analyses.
Disease progression was monitored by bioluminescence scanner. […] Mice were sacrificed at week 10.

[2] = test system: healthy prostate; assay: Healthy (tumor-free) prostate: nerve density, epithelial cell proliferation, apoptosis, Chrm1 expression; format: in vivo, mouse; details: 6OHDA; TUNEL
Description: (§2) Upon sacrifice, mouse prostate tissues were immersed in OCT medium (Tissue Teck®). Five-micrometer frozen sections were stained with hematoxylin-eosin (H&E). For immunofluorescence, unstained prostate sections were fixed with acetone or methanol. For staining of nerves, fixed sections were incubated in H2O2 to quench endogenous peroxidase and non-specific binding was blocked with goat serum in bovine serum albumin (BSA) solution and the avidin/biotin blocking kit (Vector Laboratories, Burlingame, Calif.). Sections were incubated with a rabbit anti-TH antibody (Millipore, Billerica, Mass.), or anti-VAChT antibody (Phoenix Pharmaceuticals, Inc., Burlingame, Calif.), or anti-NF-L antibody (Millipore), or anti-NF-H antibody (Abcam, Cambridge, Mass.) and then with a secondary biotinylated goat anti-rabbit antibody (Vector Laboratories). Signal was amplified using the Vectastain Elite ABC Kit (Vector Laboratories) and visualized using the Tyramide Signal Amplification kit for TRITC (PerkinElmer, Boston, Mass.).
(§3) For proliferative cell quantification, sections were incubated with a rabbit polyclonal anti-Ki67 (Abcam) and then Alexafluor 568-conjugated goat anti-rabbit antibody (Molecular Probes, Carlsbad, Calif.).
For apoptotic cell quantification, prostate sections were fixed with 4% paraformaldehyde (PFA) and stained with the Mebstain Apoptosis Kit according to manufacturer's recommendations (MBL International, Woburn, Mass.). Basement membranes were stained with a rat polyclonal anti-α2laminin antibody (Abcam) followed by Alexafluor647-conjugated goat anti-rat antibody (Molecular Probes).
Gene expression levels were analyzed from RNA extracted, using the TRIzol solution (Invitrogen, Carlsbad, Calif.), from PC-3, DU145, LNCaP cell lines or prostates from Balb/c nu/nu mice by quantitative real-time PCR, as described previously (Mendez-Ferrer, Nature, 452:442-447 (2008)).

[3] = test system: PC-3luc cells; assay: PC-3luc cell proliferation / cytotoxicity in vitro (MTT); format: cell-based, human
Description: A cell proliferation assay was performed on human PC-3 prostate tumor cells after 96 hours of treatment by G-CSF at three different concentrations by comparison with human leukemic cells (HL-60 and U937). Cell proliferation was quantified by a cell viability assay using MTT (3-[4,5-dimethylthiazole-2-yl]-2,5-diphenyltetrazolium bromide (Sigma). The percentage of viable cells was calculated by comparing the optical density (OD) of the treated samples with those incubated with vehicle. Methods were carried out as described by Magnon, et al., Cancer Res, 65, 4353-61 (2005); incorporated herein by reference in its entirety.

[4] = test system: PC-3luc cells; assay: Xenogeneic orthotopic PC-3luc prostate tumor model in nude mice (bioluminescence, immunofluorescence); format: in vivo, Balb/c nu/nu mice; details: for distant metastases / carbachol-induced lymph node invasion: antagonist in combination with carbachol
Description: The microenvironment of a developing tumor is important in cancer development and metastasis. A xenogeneic orthotopic model of prostate cancer was established to provide a minimally disruptive microenvironment for this cancer in live mice.
In vivo and ex vivo bioluminescence imaging was performed and analyzed using an IVIS imaging system 200 series (Xenogen, Caliper Life Sciences, Hopkinton, Mass.). Bioluminescent signal was induced by i.p. injection of D-luciferin (150 mg/kg in PBS) 8 minutes prior to in vivo imaging. For ex vivo imaging, D-luciferin (300 mg/kg) was injected 7 minutes prior to necropsy. Organs of interest were immersed in a solution of D-luciferin at 150 mg/ml.
as §2, §3, §1
A second cycle was administered at week four and mice were sacrificed one week later (five weeks after graft). For cholinergic experiments using the nu/nu Chrm1^tm1Stl+/+ and nu/nu Chrm1^tm1Stl−/− animals, mice were sacrificed at week six post-graft. For the survival study, grafted mice were treated as described hereinabove from week 4, every two weeks for up to 25 weeks or until death. Disease progression was monitored by bioluminescence scanner. […] One week later, mice received a second round of treatment and were then sacrificed at month four.

[5] = Intravital microscopy hemodynamic measurements after carbachol; format: in vivo, mice
Description: Centerline red blood cell velocities were measured for 10 venules and 10 arterioles in two independent experiments. Wall shear rates (γ) were calculated based on Poiseuille's law for a Newtonian fluid, γ=2.12 (8Vmean)/Dv or Da, where Dv and Da are the venular or arterial diameters, the mean blood flow velocity (Vmean) was estimated as VRBC/1.6, and 2.12 is a median empirical mean, correction factor obtained from actual velocity profiles measured in microvessels in vivo. The blood flow rate was calculated from the formula: Vmean π D^2/4.

[6] = Echocardiography cardiac function after carbachol; format: in vivo; details: carbachol four consecutive days; n = 4 mice
Description: For imaging, animals were anesthetized with a mixture of O2/1.5% isoflurane and then positioned ventral side up on the platform of the imaging system. ECG signal and respiratory rate were captured through the electrode pads on the advanced physiological monitoring unit and transmitted to the Vevo system for monitoring. Cardiac examinations were performed in two dimensional images using the parasternal long axis (PLAX) view in B-Mode with a 1MS550D 40 MHz probe. Two cineloops (300 frames/cineloop) were recorded per animal and then analyzed on two diastoles and two systoles per animal. The endocardial stroke volume and endocardial diastolic volume were determined to calculate the ejection fraction.

[7] = one hour after carbachol injection, n = 10 vessels

NCCc1cc(O)c(O)cc1O [6OHDA, 6-hydroxydopamine]
percentage of mPIN ([1]; denervation at 1 month of age): significantly reduced
prevalence of mPIN and invasive cancer zones ([1]; sympathectomy two months or more after birth): not significantly altered
apoptosis of epithelial cells in the healthy prostate [2]: triggered in vivo apoptosis
direct cytotoxicity on tumor cells in vitro ([3]; 6OHDA, cultured PC-3luc cells): no direct cytotoxicity
TH+ neural fibers expressing NF-L (basal neural layer underneath prostate epithelium) ([4]; 6OHDA 100 and 250 mg/kg): specifically destroyed
NF-L and NF-H positive fibers (parasympathetic) surrounding epithelial cells ([4]; 6OHDA treatment): without affecting
metastases ([4]; 6OHDA-induced sympathectomy): did not yield any detectable metastases
development of the primary tumors ([4]; 6OHDA-induced sympathectomy, bioluminescence, TUNEL): dramatically prevented

CN1[C@@H]2C[C@@H](OC(=O)[C@H](CO)c3ccccc3)C[C@H]1[C@@H]1O[C@@H]12 [scopolamine]
distant metastases [4]: inhibited
carbachol-induced lymph node invasion ([4]; week 5): inhibited

C[N+](C)(C)CCOC(N)=O.[Cl-] [carbachol, carbamoylcholine chloride]
vascular hemodynamics ([5]; carbachol-treated mice): not altered
Arterioles Blood Flow rate [5, 7]: 1737 ± 148 nL/s
Arterioles Diameter [5, 7]: 38.1 ±0.8 μm
Arterioles RBC velocity [5, 7]: 2.47 ± 0.22 mm/sec
Arterioles Wall shear rate (g) [5, 7]: 698 ± 69
Venules Blood Flow rate [5, 7]: 863 ± 128 nL/s
Venules Diameter [5, 7]: 33.7 ± 1.3 μm
Venules RBC velocity [5, 7]: 1.48 ± 0.19 mm/sec
Venules Wall shear rate (g) [5, 7]: 469 ± 59
incidence of mPIN ([1]; carbachol into three-month-old mice): significantly increased
transition of neoplastic lesions to invasive carcinoma ([1]; carbachol, four months of age): accelerated
Ejection fraction [6]: 65 ± 4%
Endocardial volume, diastole [6]: 34.4 ± 7.9 µL
Endocardial volume, systole [6]: 11.7 ± 3.0 µL
proliferation of PC-3luc cells in vitro ([3]; carbachol): did not induce any proliferation
invasion of inguinal lymph nodes ([4]; carbachol alone, week 5): significantly enhanced
proliferation of PC-3luc cells orthotopically implanted into the prostate (Ki67) ([4]; carbachol injections): induced the proliferation
tumor cell dissemination to distant organs compared to the control group ([4]; carbachol, ex vivo bioluminescence): about 6 fold
primary tumors (ex vivo bioluminescence) ([4]; carbachol, five weeks post-grafting): depopulated

CN1CCN(CC(=O)N2c3ccccc3C(=O)Nc3cccnc32)CC1 [pirenzepine]
carbachol-induced malignancy progression ([1]; pirenzepine with carbachol): completely inhibited
distant metastases [4]: inhibited
carbachol-induced lymph node invasion ([4]; week 5): inhibited
carbachol-induced tumor cell proliferation (Ki67) ([4]; pirenzepine with carbachol): specifically blocked
